Assay results: ChEMBL document CHEMBL3085742, “Experimental confirmation of new drug-target interactions predicted by Drug Profile Matching” (J Med Chem, 2013)

Legend:
[1] = target: T1, Prostaglandin G/H synthase 1 (Homo sapiens, UniProt P23219); test: Inhibition of COX-1 (unknown origin) using arachidonic acid as substrate assessed as formation of prostanoid products at 500 uM preincubated for 10 mins prior to substrate addition measured after 2 mins by Ellman's method relative to control
[2] = target: T1, Prostaglandin G/H synthase 1; test: Inhibition of COX-1 (unknown origin) using arachidonic acid as substrate assessed as formation of prostanoid products preincubated for 10 mins prior to substrate addition measured after 2 mins by Ellman's method
[3] = target: D(1A) dopamine receptor (Homo sapiens) (UniProt P21728); test: Agonist activity at human recombinant dopamine D1 receptor expressed in CHOK1 cells assessed as stimulation of cAMP accumulation at 100 uM after 30 mins by HTRF assay relative to SKF81297; assay type: functional, cell-based; settings: CHO-K1
[4] = target: D(2) dopamine receptor (Homo sapiens) (UniProt P14416); test: Antagonist activity at human recombinant dopamine D2 long receptor expressed in CHOK1 cells coexpressing mitochondrial apoaequorin assessed as inhibition of agonist-induced effect at 50 uM after 15 mins by luminometric analysis relative to haloperidol; assay type: cell-based; settings: CHO-K1
[5] = target: D(1A) dopamine receptor (Homo sapiens) (UniProt P21728); test: Antagonist activity at human recombinant dopamine D1 receptor expressed in CHOK1 cells assessed as inhibition of agonist-induced cAMP accumulation at 100 uM preincubated for 10 mins prior to agonist addition measured after 30 mins by HTRF assay relative to SCH23390; assay type: functional, cell-based; settings: CHO-K1
[6] = target: D(2) dopamine receptor (Homo sapiens) (UniProt P14416); test: Agonist activity at human recombinant dopamine D2 long receptor expressed in CHOK1 cells coexpressing mitochondrial apoaequorin at 100 uM by luminometric analysis relative to quinpirol; assay type: cell-based; settings: CHO-K1
[7] = target: T2, Prostaglandin G/H synthase 2 (Homo sapiens, UniProt P35354); test: Inhibition of COX-2 (unknown origin) using arachidonic acid as substrate assessed as formation of prostanoid products preincubated for 10 mins prior to substrate addition measured after 2 mins by Ellman's method
T2 sequence (P35354 whole entry): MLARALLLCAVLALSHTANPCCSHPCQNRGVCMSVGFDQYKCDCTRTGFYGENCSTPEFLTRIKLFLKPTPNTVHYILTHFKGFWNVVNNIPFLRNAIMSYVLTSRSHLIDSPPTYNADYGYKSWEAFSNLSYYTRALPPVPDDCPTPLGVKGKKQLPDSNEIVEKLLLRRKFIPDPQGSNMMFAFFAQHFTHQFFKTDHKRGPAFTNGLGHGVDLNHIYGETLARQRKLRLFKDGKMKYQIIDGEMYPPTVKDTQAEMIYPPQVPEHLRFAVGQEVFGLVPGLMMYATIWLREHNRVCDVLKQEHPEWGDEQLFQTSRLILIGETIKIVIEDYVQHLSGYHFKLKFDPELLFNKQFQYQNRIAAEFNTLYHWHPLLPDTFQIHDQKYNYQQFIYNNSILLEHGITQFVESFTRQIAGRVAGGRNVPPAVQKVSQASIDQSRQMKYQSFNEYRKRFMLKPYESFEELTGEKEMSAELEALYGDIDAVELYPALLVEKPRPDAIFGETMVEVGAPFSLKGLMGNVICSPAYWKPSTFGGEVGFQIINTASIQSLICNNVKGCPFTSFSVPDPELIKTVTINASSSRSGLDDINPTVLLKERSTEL

[8] = target: T3, Angiotensin-converting enzyme (Homo sapiens, UniProt P12821); test: Inhibition of ACE (unknown origin) assessed as 3-Hydroxybutyril-glycil-glycil-glycine conversion to 3-hydroxybutyric acid at 500 uM after 60 mins by WST assay relative to control
[9] = target: T3, Angiotensin-converting enzyme; test: Inhibition of ACE (unknown origin) assessed as 3-Hydroxybutyril-glycil-glycil-glycine conversion to 3-hydroxybutyric acid after 60 mins by WST assay
[10] = target: D(2) dopamine receptor (Homo sapiens) (UniProt P14416); test: Antagonist activity at human recombinant dopamine D2 long receptor expressed in CHOK1 cells coexpressing mitochondrial apoaequorin assessed as inhibition of agonist-induced effect at 8 uM after 15 mins by luminometric analysis relative to haloperidol; assay type: cell-based; settings: CHO-K1
[11] = target: D(2) dopamine receptor (Homo sapiens) (UniProt P14416); test: Agonist activity at human recombinant dopamine D2 long receptor expressed in CHOK1 cells coexpressing mitochondrial apoaequorin at 8 uM by luminometric analysis relative to quinpirol; assay type: cell-based; settings: CHO-K1
[12] = target: D(1A) dopamine receptor (Homo sapiens) (UniProt P21728); test: Antagonist activity at human recombinant dopamine D1 receptor expressed in CHOK1 cells assessed as inhibition of agonist-induced cAMP accumulation at 8 uM preincubated for 10 mins prior to agonist addition measured after 30 mins by HTRF assay relative to SCH23390; assay type: functional, cell-based; settings: CHO-K1
[13] = target: D(1A) dopamine receptor (Homo sapiens) (UniProt P21728); test: Agonist activity at human recombinant dopamine D1 receptor expressed in CHOK1 cells assessed as stimulation of cAMP accumulation at 8 uM after 30 mins by HTRF assay relative to SKF81297; assay type: functional, cell-based; settings: CHO-K1
[14] = target: T3, Angiotensin-converting enzyme; test: Inhibition of ACE (unknown origin) assessed as 3-Hydroxybutyril-glycil-glycil-glycine conversion to 3-hydroxybutyric acid at 128 uM after 60 mins by WST assay relative to control

T3 sequence (P12821 whole entry): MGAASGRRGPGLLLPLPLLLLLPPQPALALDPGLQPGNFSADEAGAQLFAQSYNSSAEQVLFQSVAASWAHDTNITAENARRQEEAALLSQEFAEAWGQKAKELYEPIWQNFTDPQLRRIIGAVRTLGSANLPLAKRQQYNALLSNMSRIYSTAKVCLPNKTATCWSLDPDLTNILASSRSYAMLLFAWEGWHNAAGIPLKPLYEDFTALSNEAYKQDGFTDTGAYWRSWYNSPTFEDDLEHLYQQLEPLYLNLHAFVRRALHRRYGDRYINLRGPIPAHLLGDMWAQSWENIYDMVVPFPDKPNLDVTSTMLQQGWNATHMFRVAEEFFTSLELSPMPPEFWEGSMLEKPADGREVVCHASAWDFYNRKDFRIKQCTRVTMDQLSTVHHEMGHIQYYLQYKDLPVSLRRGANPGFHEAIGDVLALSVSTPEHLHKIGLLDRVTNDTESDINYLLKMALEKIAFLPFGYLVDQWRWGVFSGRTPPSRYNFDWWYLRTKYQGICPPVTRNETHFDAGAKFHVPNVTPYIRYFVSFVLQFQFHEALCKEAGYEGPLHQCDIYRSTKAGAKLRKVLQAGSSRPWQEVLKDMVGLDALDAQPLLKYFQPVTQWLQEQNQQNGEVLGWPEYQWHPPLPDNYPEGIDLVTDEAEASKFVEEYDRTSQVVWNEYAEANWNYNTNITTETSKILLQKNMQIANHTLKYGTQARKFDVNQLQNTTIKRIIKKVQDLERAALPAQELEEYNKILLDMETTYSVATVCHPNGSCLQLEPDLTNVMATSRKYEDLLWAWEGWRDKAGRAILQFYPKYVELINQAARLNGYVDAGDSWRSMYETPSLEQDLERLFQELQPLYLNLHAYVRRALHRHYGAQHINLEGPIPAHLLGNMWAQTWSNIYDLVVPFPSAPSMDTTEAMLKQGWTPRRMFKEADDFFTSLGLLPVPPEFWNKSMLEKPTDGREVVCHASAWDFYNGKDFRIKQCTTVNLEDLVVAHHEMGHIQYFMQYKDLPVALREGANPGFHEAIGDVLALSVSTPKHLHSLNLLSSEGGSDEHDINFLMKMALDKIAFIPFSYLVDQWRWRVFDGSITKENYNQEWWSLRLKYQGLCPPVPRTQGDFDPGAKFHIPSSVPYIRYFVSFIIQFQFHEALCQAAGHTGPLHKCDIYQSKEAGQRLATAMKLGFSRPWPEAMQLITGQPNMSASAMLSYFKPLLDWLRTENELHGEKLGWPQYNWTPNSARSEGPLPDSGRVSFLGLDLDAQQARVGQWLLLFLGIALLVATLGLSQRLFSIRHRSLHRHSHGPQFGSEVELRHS
T1 sequence (P23219 whole entry): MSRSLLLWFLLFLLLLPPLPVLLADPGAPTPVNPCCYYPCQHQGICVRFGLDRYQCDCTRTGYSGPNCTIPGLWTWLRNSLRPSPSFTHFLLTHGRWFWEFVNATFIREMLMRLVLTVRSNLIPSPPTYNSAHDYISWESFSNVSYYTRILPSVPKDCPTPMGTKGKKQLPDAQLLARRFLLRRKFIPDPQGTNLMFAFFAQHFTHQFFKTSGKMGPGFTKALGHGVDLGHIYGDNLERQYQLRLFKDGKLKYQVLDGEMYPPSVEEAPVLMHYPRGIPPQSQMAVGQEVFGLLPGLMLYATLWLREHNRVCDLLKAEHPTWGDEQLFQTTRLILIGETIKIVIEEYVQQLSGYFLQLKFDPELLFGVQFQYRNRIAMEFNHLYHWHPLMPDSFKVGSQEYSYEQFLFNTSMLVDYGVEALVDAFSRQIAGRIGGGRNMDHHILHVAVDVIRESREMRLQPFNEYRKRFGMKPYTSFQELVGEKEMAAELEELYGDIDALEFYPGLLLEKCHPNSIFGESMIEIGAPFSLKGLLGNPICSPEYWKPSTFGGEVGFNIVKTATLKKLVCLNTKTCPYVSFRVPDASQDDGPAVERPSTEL
D(2) dopamine receptor (Homo sapiens), sequence (P14416 whole entry): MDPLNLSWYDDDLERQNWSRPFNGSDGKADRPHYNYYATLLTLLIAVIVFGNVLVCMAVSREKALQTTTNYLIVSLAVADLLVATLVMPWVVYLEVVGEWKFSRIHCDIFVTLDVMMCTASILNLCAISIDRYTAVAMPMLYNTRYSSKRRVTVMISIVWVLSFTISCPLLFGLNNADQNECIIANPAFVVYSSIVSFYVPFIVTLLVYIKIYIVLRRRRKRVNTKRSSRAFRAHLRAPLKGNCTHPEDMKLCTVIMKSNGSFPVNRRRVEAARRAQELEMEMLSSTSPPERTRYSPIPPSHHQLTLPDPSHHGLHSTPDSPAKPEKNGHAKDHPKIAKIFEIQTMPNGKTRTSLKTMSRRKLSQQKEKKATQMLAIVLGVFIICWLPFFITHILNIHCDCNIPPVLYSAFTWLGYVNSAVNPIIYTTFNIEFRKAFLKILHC
D(1A) dopamine receptor (Homo sapiens), sequence (P21728 whole entry): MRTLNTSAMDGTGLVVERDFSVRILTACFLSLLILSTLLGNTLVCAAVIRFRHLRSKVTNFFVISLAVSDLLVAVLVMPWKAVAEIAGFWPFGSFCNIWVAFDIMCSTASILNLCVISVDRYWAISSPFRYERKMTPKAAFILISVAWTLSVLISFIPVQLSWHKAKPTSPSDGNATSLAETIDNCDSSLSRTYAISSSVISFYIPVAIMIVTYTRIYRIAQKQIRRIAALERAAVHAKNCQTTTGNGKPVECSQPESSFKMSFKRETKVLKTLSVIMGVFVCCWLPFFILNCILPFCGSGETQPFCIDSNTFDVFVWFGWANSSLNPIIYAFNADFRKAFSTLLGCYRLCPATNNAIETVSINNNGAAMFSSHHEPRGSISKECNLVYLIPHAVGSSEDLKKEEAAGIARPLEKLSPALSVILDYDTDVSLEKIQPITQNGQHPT

CC(C)C(=O)Nc1ccc([N+](=O)[O-])c(C(F)(F)F)c1
inhibition [1]: 100%

CC/C=C\C/C=C\C/C=C\CCCCCCCC(=O)O [LINOLENIC ACID]
Ki [2]: 4 µM | inhibition [1]: 100%

CC(CN1c2ccccc2Sc2ccccc21)N(C)C (stereo not given)
Activity [3]: -7.4% | inhibition [4]: 95% | inhibition [5]: 84% | Activity [6]: 3.5%

CC[C@H]1OC(=O)[C@H](C)[C@@H](O[C@H]2C[C@@](C)(OC)[C@@H](O)[C@H](C)O2)[C@H](C)[C@@H](O[C@@H]2O[C@H](C)C[C@H](N(C)C)[C@H]2O)[C@](C)(O)C[C@@H](C)CN(C)[C@H](C)[C@@H](O)[C@]1(C)O
inhibition [1]: 68%

CN(C)CCCN1c2ccccc2CCc2ccc(Cl)cc21
Activity [3]: -4.5% | inhibition [4]: 92% | inhibition [5]: 99% | Activity [6]: 13%

CCc1cccc2c3c([nH]c12)C(CC)(CC(=O)O)OCC3 (stereo not given)
Activity [3]: -1.9% | inhibition [4]: 13% | inhibition [5]: -1.4% | Activity [6]: 0.96%

O=C1c2c(O)ccc(O)c2C(=O)c2c(NCCNCCO)ccc(NCCNCCO)c21
Activity [3]: 66% | inhibition [4]: 81% | inhibition [5]: 29% | Activity [6]: -0.4%

Oc1ccc(OCc2ccccc2)cc1
inhibition [1]: 86%

CC(N)C12CC3CC(CC(C3)C1)C2 (stereo not given)
Activity [3]: -0.8% | inhibition [4]: 41% | inhibition [5]: -0.4% | Activity [6]: 3.6%

O[C@@H](c1cc(C(F)(F)F)nc2c(C(F)(F)F)cccc12)[C@H]1CCCCN1 (relative stereo)
Activity [3]: 0.6% | inhibition [4]: 90% | inhibition [5]: 82% | Activity [6]: 45%

O=[N+]([O-])c1ccc(O)c2ncccc12 [NITROXOLINE]
inhibition [1]: 97% | Ki [7]: 1 µM

Nc1nc2[nH]cnc2c(=S)[nH]1
Activity [3]: 0.2% | inhibition [4]: 21% | inhibition [5]: 2.3% | Activity [6]: 0.61%

Nc1ccc(/N=N/c2ccccc2)c(N)n1
inhibition [1]: 23%

COc1cc2nc(N3CCN(C(=O)C4COc5ccccc5O4)CC3)nc(N)c2cc1OC (stereo not given)
Activity [3]: -4.7% | inhibition [5]: 102% | Activity [6]: 2.4%

Cc1c(O)cccc1C(=O)N[C@@H](CSc1ccccc1)[C@H](O)CN1C[C@H]2CCCC[C@H]2C[C@H]1C(=O)NC(C)(C)C
inhibition [8]: 48%

CCCc1nc2c(C)cc(-c3nc4ccccc4n3C)cc2n1Cc1ccc(-c2ccccc2C(=O)O)cc1
Ki [9]: 6 µM | inhibition [9]: Dose-dependent effect | inhibition [8]: 97%

O=C1CN(/N=C/c2ccc([N+](=O)[O-])o2)C(=O)N1
inhibition [1]: 66%

NC(=O)N/N=C/c1ccc([N+](=O)[O-])o1
inhibition [1]: 91%

O=C(O)CCCCC1CCSS1 (stereo not given)
inhibition [1]: 95%

O=C(O)[C@@H]1CCCN1 [PROLINE]
Ki [9]: 86 µM | inhibition [9]: Dose-dependent effect | inhibition [8]: 93%

CC1(C)NC(=O)N(c2ccc([N+](=O)[O-])c(C(F)(F)F)c2)C1=O
inhibition [1]: 99%

NS(=O)(=O)c1cc(C(=O)O)c(NCc2ccco2)cc1Cl
inhibition [1]: 36%

C[C@H](CS)C(=O)N1CCC[C@H]1C(=O)O [CAPTOPRIL]
Ki [2]: 17 µM | inhibition [1]: 48% | Ki [7]: 12 µM

O=C(c1ccc(OCCN2CCCCC2)cc1)c1c(-c2ccc(O)cc2)sc2cc(O)ccc12
Activity [3]: -7.2% | inhibition [4]: 88% | inhibition [5]: 97% | Activity [6]: 4.7%

CO[C@@H]1[C@@H](OC(N)=O)[C@@H](O)[C@H](Oc2ccc3c(O)c(NC(=O)c4ccc(O)c(CC=C(C)C)c4)c(=O)oc3c2C)OC1(C)C [NOVOBIOCIN]
Ki [9]: 167 µM | inhibition [9]: Dose-dependent effect | inhibition [8]: 75%

Cc1ccc(-c2cc(C(F)(F)F)nn2-c2ccc(S(N)(=O)=O)cc2)cc1
inhibition [10]: 96% | Activity [11]: 175% | inhibition [12]: 95% | Activity [13]: 1.8%

CN(C)CC/C=C1/c2ccccc2COc2ccc(CC(=O)O)cc21
Activity [3]: -1.7% | inhibition [4]: 52% | inhibition [5]: 20% | Activity [6]: -0.14%

C[C@@H]1O[C@@H]1P(=O)(O)O
Activity [3]: -1.2% | inhibition [4]: 29% | inhibition [5]: -1.3% | Activity [6]: 0.09%

NC1=NCC2c3ccccc3Cc3ccccc3N12 (stereo not given)
Activity [3]: -1% | inhibition [4]: 5.5% | inhibition [5]: 96% | Activity [6]: -0.33%

CCC[C@@]1(CCc2ccccc2)CC(O)=C([C@H](CC)c2cccc(NS(=O)(=O)c3ccc(C(F)(F)F)cn3)c2)C(=O)O1
inhibition [14]: 31%

CCn1cc(C(=O)O)c(=O)c2ccc(C)nc21
inhibition [1]: 34%

Cc1nc(Nc2ncc(C(=O)Nc3c(C)cccc3Cl)s2)cc(N2CCN(CCO)CC2)n1 [DASATINIB]
Ki [9]: 715 µM | inhibition [9]: Dose-dependent effect | inhibition [8]: 46%

CN(C)CCC=C1c2ccccc2C=Cc2ccccc21
Activity [3]: -4.7% | inhibition [4]: 95% | inhibition [5]: 98% | Activity [6]: 1%

C#C[C@]1(O)CC[C@H]2[C@@H]3CCC4=CCCC[C@@H]4[C@H]3C(=C)C[C@@]21CC
Activity [3]: 2.8% | inhibition [4]: 88% | inhibition [5]: 79% | Activity [6]: 7.1%
